Tests used:
Test in all cases: relative viability (nuclei count vs DMSO), 5 days (fraction); higher = more cells survive
AZ505 + Pemetrexed = compound: C1CCC(CC1)N(CCNCCC2=C3C(=C(C=C2)O)NC(=O)CO3)C(=O)CCNCCC4=CC(=C(C=C4)Cl)Cl [AZ505] + Nc1nc2[nH]cc(CCc3ccc(C(=O)N[C@@H](CCC(=O)O)C(=O)O)cc3)c2c(=O)[nH]1 [Pemetrexed] (partner 0.2 µM)
Method in brief: (§1)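 Relative viability divides the nuclei count in treated wells by that in vehicle wells. Lung cancer cell lines were seeded in 1536-well plates, dosed by pin tool the next day, and fixed and stained after 5 days in one step with final 0.05% Triton X-100, 1% formaldehyde and 1 ug/ml Hoechst. Dosing was a single drug or a fixed anchor-drug dose plus five library-drug doses (not always all listed) in √10 steps, and values are medians of duplicate plates imaged at 4×.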

Dactolisib + Trametinib = compound: Cn1c(=O)n(-c2ccc(C(C)(C)C#N)cc2)c2c3cc(-c4cnc5ccccc5c4)ccc3ncc21 [Dactolisib] + CC(=O)Nc1cccc(-n2c(=O)n(C3CC3)c(=O)c3c(Nc4ccc(I)cc4F)n(C)c(=O)c(C)c32)c1 [Trametinib] (partner 0.02 µM)
Method in brief: as §1

Dactolisib + Foretinib = compound: Cn1c(=O)n(-c2ccc(C(C)(C)C#N)cc2)c2c3cc(-c4cnc5ccccc5c4)ccc3ncc21 [Dactolisib] + COc1cc2c(Oc3ccc(NC(=O)C4(C(=O)Nc5ccc(F)cc5)CC4)cc3F)ccnc2cc1OCCCN1CCOCC1 [Foretinib] (partner 0.25 µM)
Method in brief: as §1

Dactolisib + Pemetrexed = compound: Cn1c(=O)n(-c2ccc(C(C)(C)C#N)cc2)c2c3cc(-c4cnc5ccccc5c4)ccc3ncc21 [Dactolisib] + Nc1nc2[nH]cc(CCc3ccc(C(=O)N[C@@H](CCC(=O)O)C(=O)O)cc3)c2c(=O)[nH]1 [Pemetrexed] (partner 0.2 µM)
Method in brief: as §1

Cell Line | relative viability (AZ505 + Pemetrexed; first compound 0.08 µM) | relative viability (AZ505 + Pemetrexed; first compound 0.253 µM) | relative viability (AZ505 + Pemetrexed; first compound 0.8 µM) | relative viability (AZ505 + Pemetrexed; first compound 2.53 µM) | relative viability (AZ505 + Pemetrexed; first compound 8 µM) | relative viability (Dactolisib + Trametinib; first compound 0.002 µM) | relative viability (Dactolisib + Trametinib; first compound 0.006325 µM) | relative viability (Dactolisib + Trametinib; first compound 0.02 µM) | relative viability (Dactolisib + Trametinib; first compound 0.06325 µM) | relative viability (Dactolisib + Trametinib; first compound 0.2 µM) | relative viability (Dactolisib + Foretinib; first compound 0.002 µM) | relative viability (Dactolisib + Foretinib; first compound 0.006325 µM) | relative viability (Dactolisib + Foretinib; first compound 0.02 µM) | relative viability (Dactolisib + Foretinib; first compound 0.06325 µM) | relative viability (Dactolisib + Foretinib; first compound 0.2 µM) | relative viability (Dactolisib + Pemetrexed; first compound 0.002 µM) | relative viability (Dactolisib + Pemetrexed; first compound 0.006325 µM) | relative viability (Dactolisib + Pemetrexed; first compound 0.02 µM) | relative viability (Dactolisib + Pemetrexed; first compound 0.06325 µM) | relative viability (Dactolisib + Pemetrexed; first compound 0.2 µM)
NCI-H441 | 0.254 | 0.272 | 0.278 | 0.308 | 0.262 | 0.523 | 0.412 | 0.43 | 0.217 | 0.213 | 1.14 | 1.04 | 0.961 | 0.432 | 0.382 | 0.24 | 0.266 | 0.24 | 0.221 | 0.25
LCLC-103H | 0.453 | 0.491 | 0.457 | 0.519 | 0.448 | 0.664 | 0.604 | 0.581 | 0.515 | 0.42 | 1.05 | 0.763 | 0.654 | 0.517 | 0.303 | 0.437 | 0.468 | 0.462 | 0.393 | 0.379
LCLC-97TM1 | 0.161 | 0.253 | 0.193 | – | 0.175 | 0.2 | 0.187 | 0.167 | 0.135 | 0.104 | 1.05 | 0.923 | 0.688 | 0.668 | 0.367 | 0.169 | 0.158 | 0.186 | 0.192 | 0.16
NCI-H1355 | 0.953 | 1 | 1.03 | 0.996 | 1 | 0.45 | 0.37 | 0.384 | 0.215 | 0.203 | 1.05 | 0.902 | 0.664 | 0.509 | 0.223 | 1.08 | 1.03 | 1.02 | 0.861 | 0.65
HOP-62 | 0.325 | 0.443 | 0.327 | 0.393 | 0.379 | 0.429 | 0.349 | 0.369 | 0.23 | 0.195 | 1.26 | 1.1 | 0.974 | 0.747 | 0.516 | 0.305 | 0.33 | 0.341 | 0.262 | 0.25
NCI-H2085 | 0.832 | 0.758 | 0.78 | 0.835 | 0.965 | 0.712 | 0.455 | 0.241 | 0.266 | 0.231 | 1.09 | 1.05 | 0.747 | 0.337 | 0.301 | 0.905 | 0.884 | 0.811 | 0.345 | 0.273
SW 900 | 0.495 | 0.516 | 0.494 | 0.498 | 0.511 | 0.923 | 0.718 | 0.746 | 0.516 | 0.318 | 1.03 | 0.828 | 0.832 | 0.576 | 0.3 | 0.498 | 0.48 | 0.474 | 0.259 | 0.271

Reference: the supplement of paper PMC10307832
